In patent publication US20190223443A1, “Methods to Increase Corn Growth” (Valent BioSciences LLC, priority 2015, published 2019):

System: corn hybrid B73 X Mo17
Test: Greenhouse study Long Grove, Ill., sprayed at V1-V2, change in height and synergy (Example 7)
Type: in vivo
Details: for Change in height from day of treatment, 2 days post treatment: control 9.74; for Change in height from day of treatment, 4 days post treatment: control 22.59; for Change in height from day of treatment, 6 days post treatment: control 43.03
Method: A greenhouse study was conducted at Long Grove, Ill. Seeds of the corn hybrid B73 X Mo17 was sown into potted soil on May 7, 2014. Plants were sprayed at 11 days post sowing (V1-V2) with solutions containing a non-ionic surfactant (0.25%, v/v) and growth was followed for 6 days. GA3 refers to gibberellic acid and ABA refers to abscisic acid. Results of the study described in 3. above can be seen in the following tables describing change in height in centimeters from day of treatment (Table 8) and change in height in centimeters from day of treatment compared to control (Table 9).
Synergy is calculated as follows: […]
Observed difference in height from control/Expected difference in height from control, where expected difference in height from control is the sum of the observed difference in height of each active ingredient applied alone. If the ratio between the experimentally observed efficacy of the mixture and the expected efficacy of the mixture is greater than 1, than synergistic interactions are present in the mixture.

How did the “Observed change in height from day of treatment compared to control, 2 days post treatment” value (shortened to “Observed change … 2 days post treatment”) (ABA 8.6 ppm alone) turn out when CC1=CC(=O)CC(C)(C)[C@@]1(O)/C=C/C(C)=C\C(=O)O [ABA, abscisic acid] was run?
The value was −0.17 cm.

What about the “Observed change in height from day of treatment compared to control, 4 days post treatment” value (shortened to “Observed change … 4 days post treatment”) (ABA 8.6 ppm alone) of the same compound?
The value was −0.72 cm.

What about the “Observed change in height from day of treatment compared to control, 6 days post treatment” value (shortened to “Observed change … 6 days post treatment”) (ABA 8.6 ppm alone) of the same compound?
Its value is −1.37 cm.

What about the “Change in height from day of treatment, 2 days post treatment” value (ABA 8.6 ppm alone) of the same compound?
The value was 9.57 cm.

What about the “Change in height from day of treatment, 4 days post treatment” value (ABA 8.6 ppm alone) of the same compound?
Its value is 21.87 cm.

And the “Change in height from day of treatment, 6 days post treatment” value (ABA 8.6 ppm alone)?
The value was 41.66 cm.

And the “Observed change … 2 days post treatment” value (ABA 10 ppm alone)?
Its value is −0.11 cm.

And the “Observed change … 4 days post treatment” value (ABA 10 ppm alone)?
The value was −0.15 cm.

What about the “Observed change … 6 days post treatment” value (ABA 10 ppm alone) of the same compound?
The value was −0.33 cm.

And the “Change in height from day of treatment, 2 days post treatment” value (ABA 10 ppm alone)?
The value was 9.63 cm.

And the “Change in height from day of treatment, 4 days post treatment” value (ABA 10 ppm alone)?
The value was 22.44 cm.

And the “Change in height from day of treatment, 6 days post treatment” value (ABA 10 ppm alone)?
The value was 42.70 cm.

And the “Observed change … 2 days post treatment” value (ABA 12 ppm alone)?
Its value is 0.75 cm.

And the “Observed change … 4 days post treatment” value (ABA 12 ppm alone)?
The value was −0.49 cm.

And the “Observed change … 6 days post treatment” value (ABA 12 ppm alone)?
The value was 0 cm.

What about the “Change in height from day of treatment, 2 days post treatment” value (ABA 12 ppm alone) of the same compound?
The value was 10.49 cm.

What about the “Change in height from day of treatment, 4 days post treatment” value (ABA 12 ppm alone) of the same compound?
The value was 22.10 cm.

And the “Change in height from day of treatment, 6 days post treatment” value (ABA 12 ppm alone)?
The value was 43.03 cm.

And the “Height of the corn compared to the control (in words)” value (applied alone, at both 4 and 6 days post treatment)?
The value was “either did not increase or decreased the height”.
